Values after ≈ are worked out from the molar mass of the structure shown. Active and inactive are the calls of the source. The calls are words filed in the database; no cut-off is given here.
What was measured:
Streptococcus mutans [1] = test: Bactericidal activity against Streptococcus mutans ATCC 25175 measured after overnight incubation; format: functional
Staphylococcus aureus [2] = test: Antibacterial activity against methicillin-resistant Staphylococcus aureus ATCC 43300 assessed as delay in bacterial growth at 4 times MIC after 10 mins; format: functional, organism-based
Streptococcus mutans [3] = test: Antibiofilm activity against Streptococcus mutans ATCC 25175 assessed as formation of broken chains at MBIC concentration by uranyl acetate-staining based electron microscopy; format: functional, organism-based
Streptococcus mutans [4] = test: Antibiofilm activity against Streptococcus mutans ATCC 25175 assessed as down-regulation of gtfB gene expression by semi-quantitative PCR analysis; format: functional, organism-based
Streptococcus mutans [5] = test: Antibiofilm activity against Streptococcus mutans ATCC 25175 assessed as down-regulation of gtfC gene expression by semi-quantitative PCR analysis; format: functional, organism-based
Streptococcus mutans [6] = test: Antibacterial activity against Streptococcus mutans ATCC 25175 measured after overnight incubation by two-fold serial dilution method; format: functional
Streptococcus mutans [7] = test: Antibiofilm activity against Streptococcus mutans ATCC 25175 measured after overnight incubation by crystal violet-staining based assay; format: functional
Staphylococcus aureus [8] = test: Antibacterial activity against methicillin-resistant Staphylococcus aureus ATCC 43300 measured after overnight incubation by two-fold serial dilution method; format: functional
Staphylococcus aureus [9] = test: Bactericidal activity against methicillin-resistant Staphylococcus aureus ATCC 43300 measured after overnight incubation; format: functional
Staphylococcus aureus [10] = test: Antibiofilm activity against methicillin-resistant Staphylococcus aureus ATCC 43300 measured after overnight incubation by crystal violet-staining based assay; format: functional
Klebsiella pneumoniae = test: Antibacterial activity against Klebsiella pneumoniae ATCC 13882 measured after overnight incubation by two-fold serial dilution method; format: functional
Staphylococcus aureus [11] = test: Bacteriostatic activity against methicillin-resistant Staphylococcus aureus ATCC 43300 assessed as log reduction in colony forming units at 15 to 20 ug/ml after 24 hrs; format: functional, organism-based
Streptococcus mutans [12] = test: Bacteriostatic activity against Streptococcus mutans ATCC 25175 assessed as log reduction in colony forming units at 12 to 16 ug/ml after 24 hrs; format: functional, organism-based
Staphylococcus aureus [13] = test: Antibacterial activity against methicillin-resistant Staphylococcus aureus ATCC 43300 assessed as inhibition of colony formation at 4 to 16 ug/ml measured after 24 hrs; format: functional, organism-based
Streptococcus mutans [14] = test: Antibacterial activity against Streptococcus mutans ATCC 25175 measured assessed as inhibition of colony formation at 5 to 20 ug/ml after 24 hrs; format: functional, organism-based
Staphylococcus aureus [15] = test: Antibacterial activity against methicillin-resistant Staphylococcus aureus ATCC 43300 assessed as reduction in bacterial viability at 4 to 16 ug/ml measured after 24 hrs by MTT assay; format: functional
Streptococcus mutans [16] = test: Antibacterial activity against Streptococcus mutans ATCC 25175 measured assessed as reduction in bacterial viability at 5 to 20 ug/ml after 24 hrs by MTT assay; format: functional
Streptococcus mutans [17] = test: Antibacterial activity against Streptococcus mutans ATCC 25175 assessed as log reduction in bacterial count at 10 ug/ml measured after 24 hrs relative to control; format: functional
Staphylococcus aureus [18] = test: Antibacterial activity against methicillin-resistant Staphylococcus aureus ATCC 43300 assessed as log reduction in bacterial count at 8 ug/ml measured after 24 hrs; format: functional
Streptococcus mutans [19] = test: Antibiofilm activity against Streptococcus mutans ATCC 25175 assessed as disruption of biofilm at 10 to 12 ug/ml by fluorescence microscopy; format: functional, organism-based
Staphylococcus aureus [20] = test: Antibiofilm activity against methicillin-resistant Staphylococcus aureus ATCC 43300 assessed as disruption of biofilm at 10 to 12 ug/ml by fluorescence microscopy; format: functional, organism-based
Staphylococcus aureus [21] = test: Antibiofilm activity against methicillin-resistant Staphylococcus aureus ATCC 43300 assessed as formation of oviod cells at MBIC concentration by uranyl acetate-staining based electron microscopy; format: functional, organism-based
Staphylococcus aureus [22] = test: Antibiofilm activity against methicillin-resistant Staphylococcus aureus ATCC 43300 assessed as formation of broken chains at MBIC concentration by uranyl acetate-staining based electron microscopy; format: functional, organism-based
Streptococcus mutans [23] = test: Antibiofilm activity against Streptococcus mutans ATCC 25175 assessed as formation of oviod cells at MBIC concentration by uranyl acetate-staining based electron microscopy; format: functional, organism-based
Staphylococcus aureus [24] = test: Antibacterial activity against methicillin-resistant Staphylococcus aureus ATCC 43300 assessed as reduction in acid production at 0.5 times MIC and MIC measured up to 24 hrs; format: functional, organism-based
Streptococcus mutans [25] = test: Antibacterial activity against Streptococcus mutans ATCC 25175 assessed as reduction in acid production at 0.5 times MIC and MIC measured up to 24 hrs; format: functional, organism-based
Staphylococcus aureus [26] = test: Antibacterial activity against methicillin-resistant Staphylococcus aureus ATCC 43300 assessed as delay in bacterial growth at MIC after 10 mins; format: functional, organism-based
Staphylococcus aureus [27] = test: Antibacterial activity against methicillin-resistant Staphylococcus aureus ATCC 43300 assessed as delay in bacterial growth at 2 times MIC after 10 mins; format: functional, organism-based
Streptococcus mutans [28] = test: Antibacterial activity against Streptococcus mutans ATCC 25175 assessed as time delay in bacterial growth at MIC, 2 times MIC and 4 times MIC; format: functional
Staphylococcus aureus [29] = test: Potency index, ratio of 6 amino penicillinic acid MIC to test compound MIC for methicillin-resistant Staphylococcus aureus ATCC 43300; format: functional
Streptococcus mutans [30] = test: Antibiofilm activity against Streptococcus mutans ATCC 25175 assessed as down-regulation of luxS gene expression by semi-quantitative PCR analysis; format: functional, organism-based
Staphylococcus aureus [31] = test: Antibiofilm activity against methicillin-resistant Staphylococcus aureus ATCC 43300 assessed as down-regulation of IcaA gene expression by semi-quantitative PCR analysis; format: functional, organism-based
Staphylococcus aureus [32] = test: Potency index, ratio of cefixime MIC to test compound MIC for methicillin-resistant Staphylococcus aureus ATCC 43300; format: functional
Streptococcus mutans [33] = test: Potency index, ratio of cefixime MIC to test compound MIC for Streptococcus mutans ATCC 25175; format: functional
Streptococcus mutans [34] = test: Potency index, ratio of 6 amino penicillinic acid MIC to test compound MIC for Streptococcus mutans ATCC 25175; format: functional
Staphylococcus aureus [35] = test: Potency index, ratio of gentamycin sulphate MIC to test compound MIC for methicillin-resistant Staphylococcus aureus ATCC 43300; format: functional
Staphylococcus aureus [36] = test: Antibacterial activity against methicillin-resistant Staphylococcus aureus ATCC 43300 assessed as time delay in bacterial growth at MIC after 10 mins; format: functional
Staphylococcus aureus [37] = test: Antibacterial activity against methicillin-resistant Staphylococcus aureus ATCC 43300 assessed as time delay in bacterial growth at 2 times MIC after 10 mins; format: functional
Staphylococcus aureus [38] = test: Bacteriostatic activity against methicillin-resistant Staphylococcus aureus ATCC 43300 assessed as log reduction in colony forming units at 12.5 to 15 ug/ml after 24 hrs; format: functional, organism-based
Streptococcus mutans [39] = test: Bacteriostatic activity against Streptococcus mutans ATCC 25175 assessed as log reduction in colony forming units at 7.5 to 10 ug/ml after 24 hrs; format: functional, organism-based
Staphylococcus aureus [40] = test: Antibacterial activity against methicillin-resistant Staphylococcus aureus ATCC 43300 assessed as inhibition of colony formation at 5 to 20 ug/ml measured after 24 hrs; format: functional, organism-based
Streptococcus mutans [41] = test: Antibacterial activity against Streptococcus mutans ATCC 25175 measured assessed as inhibition of colony formation at 5 to 15 ug/ml after 24 hrs; format: functional, organism-based
Staphylococcus aureus [42] = test: Antibacterial activity against methicillin-resistant Staphylococcus aureus ATCC 43300 assessed as reduction in bacterial viability at 5 to 20 ug/ml measured after 24 hrs by MTT assay; format: functional
Streptococcus mutans [43] = test: Antibacterial activity against Streptococcus mutans ATCC 25175 measured assessed as reduction in bacterial viability at 5 to 15 ug/ml after 24 hrs by MTT assay; format: functional
Staphylococcus aureus [44] = test: Antibacterial activity against methicillin-resistant Staphylococcus aureus ATCC 43300 assessed as log reduction in bacterial count at 5 ug/ml measured after 24 hrs; format: functional

| Structure (SMILES) | MBC (Streptococcus mutans [1]) | Activity (Staphylococcus aureus [2]) | Activity (Streptococcus mutans [4]) | Activity (Streptococcus mutans [5]) | MIC (Streptococcus mutans [6]) [µg/mL] | Activity (Streptococcus mutans [7]) [%] | MBIC (Streptococcus mutans [7]) [µg/mL] | MIC (Staphylococcus aureus [8]) [µg/mL] | MBC (Staphylococcus aureus [9]) | Activity (Staphylococcus aureus [10]) [%] | MBIC (Staphylococcus aureus [10]) [µg/mL] | MIC (Klebsiella pneumoniae) | Activity (Streptococcus mutans [17]) | Activity (Streptococcus mutans [19]) | Activity (Staphylococcus aureus [20]) | Activity (Staphylococcus aureus [21]) | Activity (Staphylococcus aureus [22]) | Activity (Staphylococcus aureus [24]) | Activity (Streptococcus mutans [25]) | Time (Streptococcus mutans [28]) | other results |
| --- | --- | --- | --- | --- | --- | --- | --- | --- | --- | --- | --- | --- | --- | --- | --- | --- | --- | --- | --- | --- | --- |
| CC1=CCC[C@@H]2[C@@](C)(CC/C(C=O)=C\C(=O)O)[C@H](C)CC[C@@]12C | 185 µg/mL (≈ 581 µM) | Active | Active | Active | 20 (≈ 62.8 µM) | 92.06 | 20 | 16 (≈ 50.2 µM) | 95 µg/mL (≈ 298 µM) | 94.26 | 16 | inactive | 7.5 - 8 log10CFU/ml | Active | Active | Active | Active | Active | Active | >=8 hr | Activity (Streptococcus mutans [3]): Active; Activity (Staphylococcus aureus [11]): Active; Activity (Streptococcus mutans [12]): Active; Activity (Staphylococcus aureus [13]): Active; Activity (Streptococcus mutans [14]): Active; Activity (Staphylococcus aureus [15]): <=90%; Activity (Streptococcus mutans [16]): <=90%; Activity (Staphylococcus aureus [18]): 9 log10CFU/ml; Activity (Streptococcus mutans [23]): Active; Activity (Staphylococcus aureus [26]): Active; Activity (Staphylococcus aureus [27]): Active; Ratio (Staphylococcus aureus [29]): 5; Activity (Streptococcus mutans [30]): Active; Activity (Staphylococcus aureus [31]): Active; Ratio (Staphylococcus aureus [32]): 5; Ratio (Streptococcus mutans [33]): 5; Ratio (Streptococcus mutans [34]): 5; Ratio (Staphylococcus aureus [35]): 5 |
| CC1=CCC[C@@H]2[C@@](C)(CCC3=CC(=O)OC3Nc3ccccc3)[C@H](C)CC[C@@]12C (mixture of isomers) | inactive | Active | Active | Active | 15 | 95.88 | 15 | 10 | inactive | 96.9 | 10 | inactive | 7.5 - 8 log10CFU/ml | Active | Active | Active | Active | Active | Active | >=8 hr | Time (Staphylococcus aureus [36]): 1 to 2 h; Time (Staphylococcus aureus [37]): 1 to 2 h; Activity (Staphylococcus aureus [38]): Active; Activity (Streptococcus mutans [39]): Active; Activity (Staphylococcus aureus [40]): Active; Activity (Streptococcus mutans [41]): Active; Activity (Staphylococcus aureus [42]): <=90%; Activity (Streptococcus mutans [43]): <=90%; Activity (Staphylococcus aureus [44]): 9.5 log10CFU/ml; Ratio (Staphylococcus aureus [29]): 5; Activity (Streptococcus mutans [30]): Active; Activity (Staphylococcus aureus [31]): inactive; Ratio (Staphylococcus aureus [32]): 5; Ratio (Streptococcus mutans [33]): 5; Ratio (Streptococcus mutans [34]): 5; Ratio (Staphylococcus aureus [35]): 5 |

Reference: ChEMBL document CHEMBL4190260, “Antibiofilm potential of 16-oxo-cleroda-3, 13(14) E-diene-15 oic acid and its five new γ-amino γ-lactone derivatives against methicillin resistant Staphylococcus aureus and Streptococcus mutans” (2017)
